From PubChem BioAssay AID2060621 (Molecular Pharmacology Branch, DTP, NCI, 2025)

System: 324938-238-R-J1-PDC complex spheroids viability
Assay: Anticancer human tumor 324938-238-R-J1-PDC patient-derived bladder carcinoma cell line growth inhibition [CLK]
Settings: for IC50: curve of first compound; for viability, T/C: stronger effect = lower value
How it was run: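 Multi-cell-type spheroids combined patient-derived tumor cells with HUVEC endothelial cells and human mesenchymal stem cells. Paired agents were dosed in half-log steps down from about clinical Cmax, or from 10 microM where Cmax was unknown.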

[1] = second compound 0.0316 µM, first compound 0.0316 µM
[2] = second compound 0.0316 µM, first compound 0.1 µM
[3] = second compound 0.0316 µM, first compound 0.316 µM
[4] = second compound 0.0316 µM, first compound 1 µM
[5] = second compound 0.0316 µM, first compound 3.16 µM
[6] = second compound 0.0316 µM, first compound 10 µM
[7] = second compound 0.1 µM, first compound 0.0316 µM
[8] = second compound 0.1 µM, first compound 0.1 µM
[9] = second compound 0.1 µM, first compound 0.316 µM
[10] = second compound 0.1 µM, first compound 1 µM
[11] = second compound 0.1 µM, first compound 3.16 µM
[12] = second compound 0.1 µM, first compound 10 µM
[13] = second compound 0.316 µM, first compound 0.0316 µM
[14] = second compound 0.316 µM, first compound 0.1 µM
[15] = second compound 0.316 µM, first compound 0.316 µM
[16] = second compound 0.316 µM, first compound 1 µM
[17] = second compound 0.316 µM, first compound 3.16 µM
[18] = second compound 0.316 µM, first compound 10 µM
[19] = second compound 1 µM, first compound 0.0316 µM
[20] = second compound 1 µM, first compound 0.1 µM
[21] = second compound 1 µM, first compound 0.316 µM
[22] = second compound 1 µM, first compound 1 µM
[23] = second compound 1 µM, first compound 3.16 µM
[24] = second compound 1 µM, first compound 10 µM
[25] = second compound 3.16 µM, first compound 0.0316 µM
[26] = second compound 3.16 µM, first compound 0.1 µM
[27] = second compound 3.16 µM, first compound 0.316 µM
[28] = second compound 3.16 µM, first compound 1 µM
[29] = second compound 3.16 µM, first compound 3.16 µM
[30] = second compound 3.16 µM, first compound 10 µM
[31] = second compound 10 µM, first compound 0.0316 µM
[32] = second compound 10 µM, first compound 0.1 µM
[33] = second compound 10 µM, first compound 0.316 µM
[34] = second compound 10 µM, first compound 1 µM
[35] = second compound 10 µM, first compound 3.16 µM
[36] = second compound 10 µM, first compound 10 µM
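Note: viability read after seven days of drug exposure.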
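Throughout, for viability, T/C: 100% = DMSO vehicle control wells.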

Question: How did the IC50 (second compound 0.0316 µM) turn out when `O=C(c1cc(Cc2n[nH]c(=O)c3ccccc23)ccc1F)N1CCN(C(=O)C2CC2)CC1` + CNC(=O)c1ccc(Nc2nc(OC3CCCC3)c3c(-c4ccc5nc(C)oc5c4)c[nH]c3n2)c(OC)c1 was run?
Answer: Its IC50 is 4260 nM.

Question: And the IC50 (second compound 0.1 µM)?
Answer: The IC50 was less than 31.6 nM.

Question: What about the IC50 (second compound 0.316 µM) of the same molecule?
Answer: Its IC50 is less than 31.6 nM.

Question: What about the IC50 (second compound 1 µM) of the same molecule?
Answer: Its IC50 is less than 31.6 nM.

Question: What about the IC50 (second compound 3.16 µM) of the same molecule?
Answer: Its IC50 is less than 31.6 nM.

Question: What about the IC50 (second compound 10 µM) of the same molecule?
Answer: Its IC50 is less than 31.6 nM.

Question: And the viability, T/C [1]?
Answer: Its viability, T/C is 90.9%.

Question: What about the viability, T/C [2] of the same molecule?
Answer: The viability, T/C was 78.5%.

Question: What about the viability, T/C [3] of the same molecule?
Answer: The viability, T/C was 83.2%.

Question: And the viability, T/C [4]?
Answer: The viability, T/C was 77.7%.

Question: And the viability, T/C [5]?
Answer: The viability, T/C was 56.9%.

Question: What about the viability, T/C [6] of the same molecule?
Answer: The viability, T/C was 29.4%.

Question: And the viability, T/C [7]?
Answer: Its viability, T/C is 31.1%.

Question: And the viability, T/C [8]?
Answer: Its viability, T/C is 27.2%.

Question: What about the viability, T/C [9] of the same molecule?
Answer: Its viability, T/C is 24.9%.

Question: And the viability, T/C [10]?
Answer: The viability, T/C was 28%.

Question: And the viability, T/C [11]?
Answer: The viability, T/C was 30.4%.

Question: And the viability, T/C [12]?
Answer: Its viability, T/C is 20.8%.

Question: What about the viability, T/C [13] of the same molecule?
Answer: The viability, T/C was 18.6%.

Question: What about the viability, T/C [14] of the same molecule?
Answer: The viability, T/C was 20.8%.

Question: What about the viability, T/C [15] of the same molecule?
Answer: Its viability, T/C is 16.2%.

Question: What about the viability, T/C [16] of the same molecule?
Answer: Its viability, T/C is 21.2%.

Question: And the viability, T/C [17]?
Answer: The viability, T/C was 19%.

Question: And the viability, T/C [18]?
Answer: Its viability, T/C is 17.9%.

Question: What about the viability, T/C [19] of the same molecule?
Answer: The viability, T/C was 15.9%.

Question: What about the viability, T/C [20] of the same molecule?
Answer: Its viability, T/C is 15.2%.

Question: And the viability, T/C [21]?
Answer: Its viability, T/C is 16.8%.

Question: And the viability, T/C [22]?
Answer: Its viability, T/C is 15.3%.

Question: And the viability, T/C [23]?
Answer: Its viability, T/C is 17.7%.

Question: And the viability, T/C [24]?
Answer: The viability, T/C was 15.8%.

Question: What about the viability, T/C [25] of the same molecule?
Answer: Its viability, T/C is 16.9%.

Question: What about the viability, T/C [26] of the same molecule?
Answer: The viability, T/C was 17.1%.

Question: What about the viability, T/C [27] of the same molecule?
Answer: The viability, T/C was 19.4%.

Question: What about the viability, T/C [28] of the same molecule?
Answer: The viability, T/C was 17.3%.

Question: And the viability, T/C [29]?
Answer: The viability, T/C was 15.5%.

Question: What about the viability, T/C [30] of the same molecule?
Answer: Its viability, T/C is 17.7%.

Question: And the viability, T/C [31]?
Answer: Its viability, T/C is 16.2%.

Question: And the viability, T/C [32]?
Answer: Its viability, T/C is 14.3%.

Question: And the viability, T/C [33]?
Answer: The viability, T/C was 15.3%.

Question: And the viability, T/C [34]?
Answer: The viability, T/C was 18.2%.

Question: And the viability, T/C [35]?
Answer: Its viability, T/C is 16.1%.

Question: And the viability, T/C [36]?
Answer: Its viability, T/C is 17.4%.

Question: What does the source list for `Nc1ccn(C2OC(CO)C(O)C2(F)F)c(=O)n1` (centres undefined) + CN1CCN(c2cc(C(=O)Nc3cc4cc(-c5cnn(C)c5)ccc4cn3)ccn2)CC1?
Answer: IC50 (second compound 0.0316 µM): < 31.6 nM; IC50 (second compound 0.1 µM): < 31.6 nM; IC50 (second compound 0.316 µM): < 31.6 nM; IC50 (second compound 1 µM): < 31.6 nM; IC50 (second compound 3.16 µM): < 31.6 nM; IC50 (second compound 10 µM): < 31.6 nM; viability, T/C [1]: 31.4%; viability, T/C [2]: 16.4%; viability, T/C [3]: 11.3%; viability, T/C [4]: 11.3%; viability, T/C [5]: 6.96%; viability, T/C [6]: 6.17%; viability, T/C [7]: 25.3%; viability, T/C [8]: 14.2%; viability, T/C [9]: 11.5%; viability, T/C [10]: 10.8%; viability, T/C [11]: 5.43%; viability, T/C [12]: 4.89%; viability, T/C [13]: 18.9%; viability, T/C [14]: 12.7%; viability, T/C [15]: 10.2%; viability, T/C [16]: 8.86%; viability, T/C [17]: 5.88%; viability, T/C [18]: 1.97%; viability, T/C [19]: 0.83%; viability, T/C [20]: 0.6%; viability, T/C [21]: 0.57%; viability, T/C [22]: 0.45%; viability, T/C [23]: 0.37%; viability, T/C [24]: 0.22%; viability, T/C [25]: 0.13%; viability, T/C [26]: 0.16%; viability, T/C [27]: 0.15%; viability, T/C [28]: 0.12%; viability, T/C [29]: 0.14%; viability, T/C [30]: 0.19%; viability, T/C [31]: 0.11%; viability, T/C [32]: 0.12%; viability, T/C [33]: 0.19%; viability, T/C [34]: 0.12%; viability, T/C [35]: 0.17%; viability, T/C [36]: 0.16%
